Source: patent publication US9879011B2, “Amorphous form of linagliptin and process for preparation thereof” (CADILA HEALTHCARE LIMITED, priority 2012, dated 2018)

Experiment: storage stability of amorphous form (polymorphic form by x-ray powder diffraction)
Type: physicochemical
Conditions: amorphous form dried under vacuum at about 50° C. to 70° C.; ordinary stability conditions (75% RH at 40° C. or 60% RH at 25° C.); no change in polymorphic form by XRPD
Experimental: The obtained linagliptin may be dried under vacuum at about 50° C. to 70° C. for 6-12 hours to get amorphous form substantially free from residual solvents. Thus obtained amorphous linagliptin is stable under ordinary stability conditions at least for 3 months and doesn't change to crystalline form.
The stable amorphous form of linagliptin may be stored under nitrogen atmosphere and packed in a double polythene bag tied with a thread, keeping primary packing containing amorphous linagliptin inside a black color polyethylene bag containing oxygen busters and sealing it, placing above the double polyethylene bag inside a triple laminated bag optionally containing oxygen busters and sealing it, and placing the sealed triple laminated bag inside a closed high density polyethylene (HDPE) container and storing in controlled environment chamber at about 25° C. and/or 40° C.
The X-ray powder diffraction spectrum was measured under the following experimental conditions: • Instrument: X-Ray Diffractometer, D/Max-2200/PC Make: Rigaku, Japan. • X-Ray: Cu/40 kv/40 mA • Diverging: 10 • Scattering Slit: 10 • Receiving Slit: 0.15 mm • Monochromator RS: 0.8 mm • Counter: Scintillation Counter • Scan Mode: Continuous • Scan Speed: 3.0000/Min • Sampling Width: 0.020 • Scan Axes: Two Theta/Theta • Scan Range: 2.0000 to 40.0000 • Theta Offset: 0.0000

stable under ordinary stability conditions, doesn't change to crystalline form: ≥ 3 months
Structure (SMILES): CC#CCn1c(N2CCC[C@@H](N)C2)nc2c1c(=O)n(Cc1nc(C)c3ccccc3n1)c(=O)n2C [amorphous linagliptin, 8-[(R)-3-aminopiperidin-1-yl]-7-(but-2-yn-1-yl)-3-methyl-1-[(4-methyl-quinazolin-2-yl)methyl]-3,7-dihydro-1H-purine-2,6-dione]
